In PMC10489980, “Design of Potent and Salt-Insensitive Antimicrobial Branched Peptides” (Polymers, 2023):
Read-outs that look alike come from different tables or passages of the source. One block for each compound: values may come before it.

What was measured:
Format in all cases: cell-based
[1] = tested on: Candida albicans ATCC 37092
Text: (§1) Ten organisms obtained from the American Type Culture Collection (ATCC; Rockville, MD) were used for antimicrobial assays. Four Gram-negative bacteria included Escherichia coli ATCC 25922, Pseudomonas aeruginosa ATCC 27853, Klebsiella oxytoca ATCC 49131, and Proteus vulgaris ATCC 49132. The three Gram-positive bacteria were Staphylococcus aureus 29213, Micrococcus luteus ATCC 49,732, and Enterococcus faecalis ATCC 29212. The three fungi were Candida albicans ATCC 37092, Candida kefyr ATCC 37095, and Candida tropicalis ATCC 37097. The clinical isolates were obtained from Singapore General Hospital (SGH). They are Enterococcus faecium, Staphylococcus aureus, Klebsiella pneumoniae, Acinetobacter baumannii, Pseudomonas aeruginosa, and Enterobacter species. The strains were incubated in trypticase soy broth (TSB), which was prepared in double distilled water and autoclaved for sterilization. TSB was purchased from Becton-Dickinson (Cockeysville, MD, USA).
(§2) Antimicrobial Assays. A sensitive and reproducible two-stage radial diffusion antimicrobial assay of Lehrer et al. was employed. A 1–4 × 10^6 colony-forming unit/mL of the test organism was mixed with 10 mL of molten underlay gel solution and poured into Petri dishes to form a uniform layer. The gel solution consisted of 10 mM sodium phosphate buffer, 0.03% TSB, and 0.02% Tween-20, with the addition of 100 mM NaCl in the case of high-salt conditions. Upon gel solidification, gel wells were made by a 3-mm diameter template in an evenly spaced array. A 5 µL aliquot of a serial half-log dilution of test peptides at seven concentrations was added to each well after removal of gel plugs. The dishes were incubated at 37 °C for 3 h to allow peptide diffusion into the underlay gels. Gels were overlaid with 10 mL of 1% agarose in 6% TSB (wt/vol). After additional incubation at 37 °C for 16–24 h, the diameter of the clear zone surrounding the wells (colony-free) was measured under a microscope. Antimicrobial activities were expressed in units (0.1 mm = 1 unit), and the MICs (in µM) were determined from the x-intercepts of the dose-response curves. Experiments were performed in triplicates.

[2] = tested on: Proteus vulgaris ATCC 49132
Text: as §1, §2

[3] = tested on: Micrococcus luteus ATCC 49,732
Text: as §1, §2

[4] = tested on: Staphylococcus aureus 29213
Text: as §1, §2

Candida kefyr ATCC 37095 = tested on: Candida kefyr ATCC 37095
Text: as §1, §2

[5] = tested on: Candida tropicalis ATCC 37097
Text: as §1, §2

[6] = tested on: Escherichia coli ATCC 25922
Text: as §1, §2

[7] = tested on: Enterococcus faecalis ATCC 29212
Text: as §1, §2

[8] = tested on: Pseudomonas aeruginosa ATCC 27853
Text: as §1, §2

[9] = tested on: Klebsiella oxytoca ATCC 49131
Text: as §1, §2

MIC, C. albicans, H-Salt ([1]; ATCC 37092, 3 h): 18.2 µM | MIC, C. albicans, L-Salt ([1]; ATCC 37092, 3 h): 6.4 µM | MIC, P. vulgaris, H-Salt ([2]; ATCC 49132, 3 h): 24.6 µM | MIC, P. vulgaris, L-Salt ([2]; ATCC 49132, 3 h): 6.9 µM | MIC, M. luteus, H-Salt ([3]; ATCC 49, 3 h): 16.4 µM | MIC, M. luteus, L-Salt ([3]; ATCC 49, 3 h): 5.4 µM | MIC, S. aureus, H-Salt ([4]; 29213, 3 h): 93.4 µM | MIC, S. aureus, L-Salt ([4]; 29213, 3 h): 9.6 µM | MIC, C. kefyr, H-Salt (Candida kefyr ATCC 37095; ATCC 37095, 3 h): 1.4 µM | MIC, C. kefyr, L-Salt (Candida kefyr ATCC 37095; ATCC 37095, 3 h): 0.8 µM | MIC, C. tropicalis, H-Salt ([5]; ATCC 37097, 3 h): 1.9 µM | MIC, C. tropicalis, L-Salt ([5]; ATCC 37097, 3 h): 2.1 µM | MIC, E. coli, H-Salt ([6]; ATCC 25922, 3 h): 8.7 µM | MIC, E. coli, L-Salt ([6]; ATCC 25922, 3 h): 0.9 µM | MIC, E. faecalis, H-Salt ([7]; ATCC 29212, 3 h): > 500 µM | MIC, E. faecalis, L-Salt ([7]; ATCC 29212, 3 h): 49.8 µM | MIC, P. aeruginosa, H-Salt ([8]; ATCC 27853, 3 h): 8.9 µM | MIC, P. aeruginosa, L-Salt ([8]; ATCC 27853, 3 h): 1.9 µM | MIC, K. oxytoca, H-Salt ([9]; ATCC 49131, 3 h): 1.7 µM | MIC, K. oxytoca, L-Salt ([9]; ATCC 49131, 3 h): 1.7 µM
Structure (SMILES): CC(=O)N[C@@H](CCCNC(=O)[C@H](CCCNC(=N)N)NC(=O)[C@H](Cc1ccc(O)cc1)NC(=O)[C@H](CC(C)C)NC(=O)[C@@H](N)CCCNC(=N)N)C(=O)N[C@@H](CCCNC(=O)[C@H](CCCNC(=N)N)NC(=O)[C@H](Cc1ccc(O)cc1)NC(=O)[C@H](CC(C)C)NC(=O)[C@@H](N)CCCNC(=N)N)C(=O)N[C@@H](CCCNC(=O)[C@H](CCCNC(=N)N)NC(=O)[C@H](Cc1ccc(O)cc1)NC(=O)[C@H](CC(C)C)NC(=O)[C@@H](N)CCCNC(=N)N)C(N)=O [O3R]

MIC, C. albicans, H-Salt ([1]; ATCC 37092, radial diffusion assay, high-salt (100 mM NaCl), triplicates): 0.8 µM | MIC, C. albicans, L-Salt ([1]; ATCC 37092, radial diffusion assay, low-salt (without NaCl), triplicates): 0.7 µM | MIC, P. vulgaris, H-Salt ([2]; ATCC 49132, radial diffusion assay, high-salt (100 mM NaCl), triplicates): 1.0 µM | MIC, P. vulgaris, L-Salt ([2]; ATCC 49132, radial diffusion assay, low-salt (without NaCl), triplicates): 1.1 µM | MIC, M. luteus, H-Salt ([3]; ATCC 49,732, radial diffusion assay, high-salt (100 mM NaCl), triplicates): 1.0 µM | MIC, M. luteus, L-Salt ([3]; ATCC 49,732, radial diffusion assay, low-salt (without NaCl), triplicates): 0.6 µM | MIC, S. aureus, H-Salt ([4]; strain 29213, radial diffusion assay, high-salt (100 mM NaCl), triplicates): 0.9 µM | MIC, S. aureus, L-Salt ([4]; strain 29213, radial diffusion assay, low-salt (without NaCl), triplicates): 0.8 µM | MIC, C. kefyr, H-Salt (Candida kefyr ATCC 37095; ATCC 37095, radial diffusion assay, high-salt (100 mM NaCl), triplicates): 0.9 µM | MIC, C. kefyr, L-Salt (Candida kefyr ATCC 37095; ATCC 37095, radial diffusion assay, low-salt (without NaCl), triplicates): 0.9 µM | MIC, C. tropicalis, H-Salt ([5]; ATCC 37097, radial diffusion assay, high-salt (100 mM NaCl), triplicates): 1.2 µM | MIC, C. tropicalis, L-Salt ([5]; ATCC 37097, radial diffusion assay, low-salt (without NaCl), triplicates): 1.5 µM | MIC, E. coli, H-Salt ([6]; ATCC 25922, two-stage radial diffusion assay, high-salt (underlay gel 10 mM sodium phosphate, 0.03% TSB, 0.02% Tween-20, with 100 mM NaCl), 37 °C, x-intercept of dose-response curve, triplicates): 0.7 µM | MIC, E. coli, L-Salt ([6]; ATCC 25922, two-stage radial diffusion assay, low-salt (underlay gel 10 mM sodium phosphate, 0.03% TSB, 0.02% Tween-20, without NaCl), 37 °C, x-intercept of dose-response curve, triplicates): 0.7 µM | MIC, E. faecalis, H-Salt ([7]; ATCC 29212, radial diffusion assay, high-salt (100 mM NaCl), triplicates): 1.5 µM | MIC, E. faecalis, L-Salt ([7]; ATCC 29212, radial diffusion assay, low-salt (without NaCl), triplicates): 0.5 µM | MIC, P. aeruginosa, H-Salt ([8]; ATCC 27853, radial diffusion assay, high-salt (100 mM NaCl), triplicates): 0.9 µM | MIC, P. aeruginosa, L-Salt ([8]; ATCC 27853, radial diffusion assay, low-salt (without NaCl), triplicates): 0.8 µM | MIC, K. oxytoca, H-Salt ([9]; ATCC 49131, radial diffusion assay, high-salt (100 mM NaCl), triplicates): 1.2 µM | MIC, K. oxytoca, L-Salt ([9]; ATCC 49131, radial diffusion assay, low-salt (without NaCl), triplicates): 1.3 µM
Structure (SMILES): CC(C)C[C@H](NC(=O)[C@@H](N)CCCNC(=N)N)C(=O)N[C@@H](Cc1ccc(O)cc1)C(=O)N[C@@H](CCCNC(=N)N)C(=O)NCCCC[C@H](NC(=O)[C@H](CCCCNC(=O)[C@H](CCCNC(=N)N)NC(=O)[C@H](Cc1ccc(O)cc1)NC(=O)[C@H](CC(C)C)NC(=O)[C@@H](N)CCCNC(=N)N)NC(=O)[C@H](CCCCNC(=O)[C@H](CCCNC(=N)N)NC(=O)[C@H](Cc1ccc(O)cc1)NC(=O)[C@H](CC(C)C)NC(=O)[C@@H](N)CCCNC(=N)N)NC(=O)[C@H](CCCCNC(=O)[C@H](CCCNC(=N)N)NC(=O)[C@H](Cc1ccc(O)cc1)NC(=O)[C@H](CC(C)C)NC(=O)[C@@H](N)CCCNC(=N)N)NC(=O)OCC1c2ccccc2-c2ccccc21)C(N)=O [K4R]
